Calls of active or inactive are those of the source. The rule behind the calls is not given here.
What was measured:
[1] = species on record: Rattus norvegicus; experiment: Ratio of Ki for rat sigma1 opioid receptor to Ki for rat sigma2 opioid receptor
[2] = Displacement of [3H]DTG from opioid sigma2 receptor in rat brain homogenate; assay type: tissue-based
[3] = Displacement of [3H]bremazocine from opioid receptor in rat brain homogenate; assay type: tissue-based
[4] = Displacement of [3H]ketanserin from 5HT2 receptor in rat brain homogenate; assay type: tissue-based
[5] = biological target: Sodium-dependent serotonin transporter (Rattus norvegicus, UniProt P31652); experiment: Displacement of [3H]paroxetine from serotonin transporter in rat brain homogenate; assay type: tissue-based
[6] = biological target: Norepinephrine transporter (Rattus norvegicus, UniProt Q9WTR4); experiment: Displacement of [3H]nisoxetine from norepinephrine transporter in rat brain homogenate; assay type: tissue-based
[7] = biological target: Sodium-dependent dopamine transporter (Rattus norvegicus, UniProt P23977); experiment: Displacement of [3H]WIN-35428 from dopamine transporter in rat brain homogenate; assay type: tissue-based
[8] = biological target: Glutamate NMDA receptor; experiment: Displacement of [3H]TCP from NMDA receptor in rat brain homogenate; assay type: tissue-based
[9] = biological target: Sigma non-opioid intracellular receptor 1 (Rattus norvegicus, UniProt Q9R0C9); experiment: Displacement of [3H](+)-pentazocine from opioid sigma1 receptor in rat brain homogenate; assay type: tissue-based
[10] = tested on: Mus musculus; experiment: Inhibition of cocaine-induced convulsions in ip dosed Swiss Webster mouse after 15 mins; assay type: functional, organism-based

Sigma non-opioid intracellular receptor 1, sequence (Q9R0C9 whole entry): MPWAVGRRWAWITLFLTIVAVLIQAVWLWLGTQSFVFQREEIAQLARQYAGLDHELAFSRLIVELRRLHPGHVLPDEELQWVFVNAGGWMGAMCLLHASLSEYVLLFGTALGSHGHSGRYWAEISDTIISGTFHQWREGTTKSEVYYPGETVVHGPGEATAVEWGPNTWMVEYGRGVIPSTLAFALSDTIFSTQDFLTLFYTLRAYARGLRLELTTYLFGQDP
Sodium-dependent dopamine transporter, sequence (P23977 whole entry): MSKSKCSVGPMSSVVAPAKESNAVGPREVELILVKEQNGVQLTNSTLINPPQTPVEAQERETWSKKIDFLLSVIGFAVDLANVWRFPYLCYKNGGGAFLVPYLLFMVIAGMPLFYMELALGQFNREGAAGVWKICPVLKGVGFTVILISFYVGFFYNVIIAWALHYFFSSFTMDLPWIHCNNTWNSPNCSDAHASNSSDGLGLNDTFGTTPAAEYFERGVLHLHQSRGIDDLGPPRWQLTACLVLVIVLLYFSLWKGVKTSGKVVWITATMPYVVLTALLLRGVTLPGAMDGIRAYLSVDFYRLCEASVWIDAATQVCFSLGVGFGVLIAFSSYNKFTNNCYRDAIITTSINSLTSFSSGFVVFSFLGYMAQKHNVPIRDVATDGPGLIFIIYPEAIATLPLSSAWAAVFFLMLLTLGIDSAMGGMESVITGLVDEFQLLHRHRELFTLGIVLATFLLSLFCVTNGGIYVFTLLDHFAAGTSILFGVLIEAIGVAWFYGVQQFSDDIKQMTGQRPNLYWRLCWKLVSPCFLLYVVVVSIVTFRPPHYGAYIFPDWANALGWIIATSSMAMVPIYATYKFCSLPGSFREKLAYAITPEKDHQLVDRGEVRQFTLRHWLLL
Norepinephrine transporter, sequence (Q9WTR4 whole entry): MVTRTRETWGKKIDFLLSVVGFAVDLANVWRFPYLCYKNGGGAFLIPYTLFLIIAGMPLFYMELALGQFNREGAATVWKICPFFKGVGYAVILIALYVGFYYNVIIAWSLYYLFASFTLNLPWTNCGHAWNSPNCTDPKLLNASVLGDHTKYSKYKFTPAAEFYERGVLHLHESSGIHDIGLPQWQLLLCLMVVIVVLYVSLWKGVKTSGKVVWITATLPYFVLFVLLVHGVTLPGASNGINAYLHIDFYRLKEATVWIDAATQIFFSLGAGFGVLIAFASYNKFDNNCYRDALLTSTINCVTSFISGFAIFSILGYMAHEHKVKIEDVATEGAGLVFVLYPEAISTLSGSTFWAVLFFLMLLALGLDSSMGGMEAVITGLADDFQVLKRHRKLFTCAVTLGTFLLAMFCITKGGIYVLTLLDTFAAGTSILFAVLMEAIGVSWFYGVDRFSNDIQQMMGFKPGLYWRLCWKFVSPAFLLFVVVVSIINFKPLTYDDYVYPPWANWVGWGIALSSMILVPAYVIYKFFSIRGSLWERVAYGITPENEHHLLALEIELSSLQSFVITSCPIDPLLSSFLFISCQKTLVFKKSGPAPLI
Sodium-dependent serotonin transporter, sequence (P31652 whole entry): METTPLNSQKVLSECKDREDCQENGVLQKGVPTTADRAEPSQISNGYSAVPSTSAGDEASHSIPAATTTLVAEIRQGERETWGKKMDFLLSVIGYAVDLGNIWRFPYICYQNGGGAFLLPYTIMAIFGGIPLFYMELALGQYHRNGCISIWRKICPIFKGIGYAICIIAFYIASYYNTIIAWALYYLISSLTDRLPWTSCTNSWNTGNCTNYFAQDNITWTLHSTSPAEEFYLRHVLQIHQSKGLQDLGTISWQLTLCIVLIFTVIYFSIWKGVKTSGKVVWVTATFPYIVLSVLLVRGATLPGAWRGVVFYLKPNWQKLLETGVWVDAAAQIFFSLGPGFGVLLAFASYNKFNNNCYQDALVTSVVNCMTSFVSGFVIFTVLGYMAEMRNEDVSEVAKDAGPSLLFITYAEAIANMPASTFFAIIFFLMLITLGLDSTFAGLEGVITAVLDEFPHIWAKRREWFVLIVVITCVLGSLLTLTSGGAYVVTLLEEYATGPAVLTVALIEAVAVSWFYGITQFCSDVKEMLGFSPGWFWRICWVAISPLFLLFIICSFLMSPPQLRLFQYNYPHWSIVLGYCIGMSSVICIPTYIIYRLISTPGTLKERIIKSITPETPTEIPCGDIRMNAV

Structure (SMILES)	Ratio Ki [1]	Ki [2] [nM]	further results
O=c1oc2ccccc2n1CCCCCCN1CCN(C2CCCCC2)CC1	1.5	3.06	
O=c1sc2ccccc2n1CCCCN1CCN(C2CCCCC2)CC1		0.39	
S=c1sc2ccccc2n1CCCCN1CCN(C2CCCCC2)CC1	2.33	0.55	Ki [3]: > 10000 nM; Ki [4]: 1330 nM; Ki [5]: 1400 nM; Ki [6]: > 10000 nM; Ki [7]: 1170 nM; Ki [8]: > 10000 nM
c1ccc2oc(SCCCCN3CCN(C4CCCCC4)CC3)nc2c1		3.77	
O=c1oc2ccccc2n1CCN1CCN(C2CCCCC2)CC1		5.43	
O=c1oc2ccccc2n1CCCCCN1CCN(C2CCCCC2)CC1	1.79	5.89	
O=c1sc2ccccc2n1CCCCCN1CCN(C2CCCCC2)CC1		2.44	
O=c1sc2ccccc2n1CCCCCCN1CCN(C2CCCCC2)CC1	4.4	1.49	
O=c1oc2ccccc2n1CCCCN1CCN(C2CCCCC2)CC1	6.15	1.83	
S=c1oc2ccccc2n1CCCCN1CCN(C2CCCCC2)CC1		0.77	
O=c1sc2ccccc2n1CCCN1CCN(C2CCCCC2)CC1	1.84	3.05	
O=c1oc2ccccc2n1CCCN1CCN(C2CCCCC2)CC1		8.74	
O=c1sc2ccccc2n1CCN1CCN(C2CCCCC2)CC1		2.25	
CCCc1ccc2c(c1)sc(=O)n2CCN1CCCCCC1	0.00014	831	Ki [9]: 0.12 nM; Activity [10]: Active
COc1cccc2c1CCCC2CCCN1CCN(C2CCCCC2)CC1 (configuration not stated)	1.33	1.11	Ki [9]: 1.48 nM

— ChEMBL document CHEMBL1143251 (J Med Chem, 2008)
